Results reported in EP4467141A1, “PYRAZOLO-QUINOLINES AS SELECTIVE INHIBITORS OF GENOTOXIC STRESS-INDUCED IKK/NF- KB PATHWAYS FOR CANCER THERAPY” (Max-Delbrück-Centrum für Molekulare Medizin in der …, priority 2023, dated 2024).

Experiments:
Experiment in all cases: Kinase panel study
Type in all cases: biochemical
Conditions in all cases: read-out: Percentage of inhibition
[1] = target: T1, AKT2 (PKB beta) (Homo sapiens, UniProt P31751)
T1 construct: purchased Thermo Fisher Scientific
Description: (§1) The Kinase panel study was entirely provided by Thermo Fisher Scientific using the two lead compounds MW01 and MW05 as well as their derivatives (MW01-E06, MW01-E10, MW01-E14, MW01-E18, MW05-E2, MW05-E3, MW05-E9 and MW05-E10. The experiment was performed using the ZLyte or Adapta protocol according to manufacturer standard operating procedures.
(§2) Based on their similar effects in our screen and molecular analysis, MW01 and MW05 were used in comparative target deconvolution studies seeking common targets despite their distinct structures. To eliminate previously identified kinases regulating NF-κB activity, such as IKK, as possible targets of MW01 and MW05, an in vitro kinase inhibition assay was performed. […] We next investigated if any of the shared kinase targets of MW01 and MW05 play a role in genotoxic stress-induced NF-κB activity and established several criteria to narrow down pathway-relevant targets. Considering the similar NF-κB inhibition phenotypes of both compounds, we hypothesized first that the target should be shared by both lead compounds. Second, based on the CaCo2 recovery values and experimental treatment concentration of 10 µM), the putative target kinase should have a low IC50 of, at most, 2000 nM for both lead compounds in the in vitro kinase panel (Fig. 2A). Based on these criteria alone, we arrived at a relatively short list of potential targets for further analysis, leaving only PIK3CG, PIK3C2G, and CLK2 (Fig. 2B). IC50 values for PIK3C2G by both lead compounds agreed best with these criteria, but RNA expression analysis indicates high tissue specificity as well as lack of expression of this kinase in our U2-OS model cell line, which we then eliminated from further analysis (Uhlén et al., 2015). […] Table 6: Percentage of inhibition of the indicated kinases by MW01 or MW05 at either 10 µM or 1 µM. n.d. = not determined.

[2] = target: T2, ALK (Homo sapiens, UniProt Q9UM73)
T2 construct: purchased Thermo Fisher Scientific
Description: as §1, §2

[3] = target: T3, BLK (Homo sapiens, UniProt P51451)
T3 construct: purchased Thermo Fisher Scientific
Description: as §1, §2

[4] = target: T4, BTK (Homo sapiens, UniProt Q06187)
T4 construct: purchased Thermo Fisher Scientific
Description: as §1, §2

[5] = target: T5, CSF1R (FMS) (Homo sapiens, UniProt P07333)
T5 construct: purchased Thermo Fisher Scientific
Description: as §1, §2

[6] = target: T6, DYRK1A (Homo sapiens, UniProt Q13627)
T6 construct: purchased Thermo Fisher Scientific
Description: as §1, §2

[7] = target: T7, DYRK1B (Homo sapiens, UniProt Q9Y463)
T7 construct: purchased Thermo Fisher Scientific
Description: as §1, §2

[8] = target: T8, EGFR (ErbB1) (Homo sapiens, UniProt P00533)
T8 construct: purchased Thermo Fisher Scientific
Description: as §1, §2

[9] = target: T9, GSG2 (Haspin) (Homo sapiens, UniProt Q8TF76)
T9 construct: purchased Thermo Fisher Scientific
T9 sequence (Q8TF76 1-798): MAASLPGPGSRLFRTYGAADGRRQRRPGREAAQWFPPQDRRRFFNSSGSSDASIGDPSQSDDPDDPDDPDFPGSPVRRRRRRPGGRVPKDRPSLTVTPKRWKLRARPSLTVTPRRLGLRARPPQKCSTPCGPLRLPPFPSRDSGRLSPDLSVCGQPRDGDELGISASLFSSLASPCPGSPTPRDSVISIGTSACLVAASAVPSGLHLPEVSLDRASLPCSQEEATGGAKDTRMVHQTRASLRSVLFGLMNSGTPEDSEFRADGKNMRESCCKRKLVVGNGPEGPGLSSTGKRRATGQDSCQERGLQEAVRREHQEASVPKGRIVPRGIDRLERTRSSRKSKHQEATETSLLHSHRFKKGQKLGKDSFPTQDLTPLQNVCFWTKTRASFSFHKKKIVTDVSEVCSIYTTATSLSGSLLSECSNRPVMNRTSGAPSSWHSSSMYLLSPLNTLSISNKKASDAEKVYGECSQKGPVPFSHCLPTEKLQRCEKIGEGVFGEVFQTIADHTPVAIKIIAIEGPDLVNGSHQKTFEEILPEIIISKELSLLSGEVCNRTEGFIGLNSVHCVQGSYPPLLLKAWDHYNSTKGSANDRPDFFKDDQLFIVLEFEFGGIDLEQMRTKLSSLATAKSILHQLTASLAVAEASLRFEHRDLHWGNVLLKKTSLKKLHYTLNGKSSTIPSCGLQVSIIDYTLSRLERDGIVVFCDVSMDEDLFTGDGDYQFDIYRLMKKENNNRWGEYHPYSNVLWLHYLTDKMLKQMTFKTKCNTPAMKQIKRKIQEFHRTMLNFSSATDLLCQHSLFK
Description: as §1, §2

[10] = target: T10, IRAK1 (Homo sapiens, UniProt P51617)
T10 construct: purchased Thermo Fisher Scientific
Description: as §1, §2

[11] = target: T11, LRRK2 (Homo sapiens, UniProt Q5S007)
T11 construct: purchased Thermo Fisher Scientific
Description: as §1, §2

[12] = target: T12, MINK1 (Homo sapiens, UniProt Q8N4C8)
T12 construct: purchased Thermo Fisher Scientific
Description: as §1, §2

[13] = target: T13, PI4K2A (PI4K2 alpha) (Homo sapiens, UniProt Q9BTU6)
T13 construct: purchased Thermo Fisher Scientific
Description: as §1, §2

[14] = target: T14, PI4KB (PI4K beta) (Homo sapiens, UniProt Q9UBF8)
T14 construct: purchased Thermo Fisher Scientific
Description: as §1, §2

[15] = target: T15, PIK3C2A (PI3K-C2 alpha) (Homo sapiens, UniProt O00443)
T15 construct: purchased Thermo Fisher Scientific
Description: as §1, §2

[16] = target: T16, PIK3CA/PIK3R1 (p11 0 alpha/p85 alpha) (Homo sapiens, UniProt P42336)
T16 construct: purchased Thermo Fisher Scientific
Description: as §1, §2

[17] = target: T17, PIK3CA/PIK3R3 (p11 0 alpha/p55 gamma) (Homo sapiens, UniProt P42336)
T17 construct: purchased Thermo Fisher Scientific
Description: as §1, §2

[18] = target: T18, PIP5K1A (Homo sapiens, UniProt Q99755)
T18 construct: purchased Thermo Fisher Scientific
Description: as §1, §2

[19] = target: T19, PIP5K1B (Homo sapiens, UniProt O14986)
T19 construct: purchased Thermo Fisher Scientific
Description: as §1, §2

[20] = target: T20, PIP5K1C (Homo sapiens, UniProt O60331)
T20 construct: purchased Thermo Fisher Scientific
Description: as §1, §2

T2 sequence (Q9UM73 19-1620): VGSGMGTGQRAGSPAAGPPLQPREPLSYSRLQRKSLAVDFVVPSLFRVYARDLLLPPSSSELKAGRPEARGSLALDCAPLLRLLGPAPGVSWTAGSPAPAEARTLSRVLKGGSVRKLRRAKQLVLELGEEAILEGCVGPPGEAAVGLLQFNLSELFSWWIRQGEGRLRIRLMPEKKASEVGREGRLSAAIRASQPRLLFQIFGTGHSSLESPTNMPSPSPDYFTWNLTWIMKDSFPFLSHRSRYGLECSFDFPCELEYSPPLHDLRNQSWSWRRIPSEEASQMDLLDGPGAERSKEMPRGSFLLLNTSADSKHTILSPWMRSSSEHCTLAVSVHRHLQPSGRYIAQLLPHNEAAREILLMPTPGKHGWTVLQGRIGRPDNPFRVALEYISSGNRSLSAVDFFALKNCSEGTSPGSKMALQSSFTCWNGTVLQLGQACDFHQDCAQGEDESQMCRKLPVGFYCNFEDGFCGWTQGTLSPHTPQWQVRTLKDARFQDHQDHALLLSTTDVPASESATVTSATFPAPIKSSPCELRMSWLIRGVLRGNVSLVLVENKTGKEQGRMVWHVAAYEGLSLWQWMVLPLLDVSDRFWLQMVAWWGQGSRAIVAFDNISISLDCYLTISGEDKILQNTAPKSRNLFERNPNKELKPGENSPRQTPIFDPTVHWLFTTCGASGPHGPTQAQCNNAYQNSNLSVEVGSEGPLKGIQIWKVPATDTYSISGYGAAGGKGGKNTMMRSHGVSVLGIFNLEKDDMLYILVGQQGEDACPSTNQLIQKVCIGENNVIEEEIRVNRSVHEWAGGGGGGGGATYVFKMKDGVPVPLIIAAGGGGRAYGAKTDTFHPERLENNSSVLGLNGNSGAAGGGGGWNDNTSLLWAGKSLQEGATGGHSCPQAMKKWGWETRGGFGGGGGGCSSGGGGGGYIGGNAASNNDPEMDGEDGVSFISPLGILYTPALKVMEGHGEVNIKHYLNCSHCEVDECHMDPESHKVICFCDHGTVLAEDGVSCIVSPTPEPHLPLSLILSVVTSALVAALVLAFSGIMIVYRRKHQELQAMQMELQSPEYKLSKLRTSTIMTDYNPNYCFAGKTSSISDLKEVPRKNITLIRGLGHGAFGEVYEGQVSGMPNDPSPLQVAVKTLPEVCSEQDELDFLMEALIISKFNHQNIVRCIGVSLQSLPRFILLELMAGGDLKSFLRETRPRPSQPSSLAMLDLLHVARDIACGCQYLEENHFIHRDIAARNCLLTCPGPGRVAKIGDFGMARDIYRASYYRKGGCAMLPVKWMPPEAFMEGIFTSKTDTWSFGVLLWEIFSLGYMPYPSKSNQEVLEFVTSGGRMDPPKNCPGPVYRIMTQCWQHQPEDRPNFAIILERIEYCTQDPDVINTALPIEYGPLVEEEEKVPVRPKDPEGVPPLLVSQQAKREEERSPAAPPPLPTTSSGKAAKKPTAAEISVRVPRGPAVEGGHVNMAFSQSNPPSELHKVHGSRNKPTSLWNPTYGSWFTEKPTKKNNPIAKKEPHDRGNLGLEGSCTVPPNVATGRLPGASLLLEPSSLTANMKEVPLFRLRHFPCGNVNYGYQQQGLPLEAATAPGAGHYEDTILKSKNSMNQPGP
T14 sequence (Q9UBF8 whole entry): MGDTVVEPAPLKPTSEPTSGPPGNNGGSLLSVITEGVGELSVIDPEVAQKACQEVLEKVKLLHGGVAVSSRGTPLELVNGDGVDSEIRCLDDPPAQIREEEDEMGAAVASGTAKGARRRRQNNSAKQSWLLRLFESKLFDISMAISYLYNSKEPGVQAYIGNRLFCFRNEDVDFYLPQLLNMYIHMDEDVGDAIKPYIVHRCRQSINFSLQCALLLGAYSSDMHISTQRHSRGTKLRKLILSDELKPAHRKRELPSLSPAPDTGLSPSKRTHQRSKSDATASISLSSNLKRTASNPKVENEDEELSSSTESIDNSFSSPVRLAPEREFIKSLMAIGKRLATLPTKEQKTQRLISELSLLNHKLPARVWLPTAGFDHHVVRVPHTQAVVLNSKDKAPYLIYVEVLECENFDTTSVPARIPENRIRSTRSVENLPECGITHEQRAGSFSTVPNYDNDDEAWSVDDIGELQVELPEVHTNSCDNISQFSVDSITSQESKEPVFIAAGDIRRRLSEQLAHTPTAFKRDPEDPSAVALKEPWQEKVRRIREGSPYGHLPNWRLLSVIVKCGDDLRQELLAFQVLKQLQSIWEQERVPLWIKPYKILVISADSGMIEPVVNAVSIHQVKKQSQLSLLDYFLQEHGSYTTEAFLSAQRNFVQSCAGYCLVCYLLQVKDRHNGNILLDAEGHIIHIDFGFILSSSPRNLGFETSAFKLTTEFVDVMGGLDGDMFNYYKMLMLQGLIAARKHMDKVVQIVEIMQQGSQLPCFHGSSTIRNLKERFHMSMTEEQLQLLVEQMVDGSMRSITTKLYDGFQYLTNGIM
T3 sequence (P51451 whole entry): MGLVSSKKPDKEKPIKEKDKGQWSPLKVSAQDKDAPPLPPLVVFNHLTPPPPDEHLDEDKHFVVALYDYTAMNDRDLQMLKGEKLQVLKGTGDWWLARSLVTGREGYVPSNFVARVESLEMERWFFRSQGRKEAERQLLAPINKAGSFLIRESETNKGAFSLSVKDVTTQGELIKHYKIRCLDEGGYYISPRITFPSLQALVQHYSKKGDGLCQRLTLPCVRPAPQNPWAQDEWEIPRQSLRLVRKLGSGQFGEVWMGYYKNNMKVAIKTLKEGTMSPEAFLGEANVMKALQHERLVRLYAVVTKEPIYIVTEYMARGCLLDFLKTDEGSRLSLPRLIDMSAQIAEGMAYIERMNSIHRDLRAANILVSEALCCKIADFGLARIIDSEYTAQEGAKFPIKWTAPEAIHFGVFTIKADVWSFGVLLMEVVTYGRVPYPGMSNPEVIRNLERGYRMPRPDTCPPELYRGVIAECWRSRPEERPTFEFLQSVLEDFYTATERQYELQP
T12 sequence (Q8N4C8 whole entry): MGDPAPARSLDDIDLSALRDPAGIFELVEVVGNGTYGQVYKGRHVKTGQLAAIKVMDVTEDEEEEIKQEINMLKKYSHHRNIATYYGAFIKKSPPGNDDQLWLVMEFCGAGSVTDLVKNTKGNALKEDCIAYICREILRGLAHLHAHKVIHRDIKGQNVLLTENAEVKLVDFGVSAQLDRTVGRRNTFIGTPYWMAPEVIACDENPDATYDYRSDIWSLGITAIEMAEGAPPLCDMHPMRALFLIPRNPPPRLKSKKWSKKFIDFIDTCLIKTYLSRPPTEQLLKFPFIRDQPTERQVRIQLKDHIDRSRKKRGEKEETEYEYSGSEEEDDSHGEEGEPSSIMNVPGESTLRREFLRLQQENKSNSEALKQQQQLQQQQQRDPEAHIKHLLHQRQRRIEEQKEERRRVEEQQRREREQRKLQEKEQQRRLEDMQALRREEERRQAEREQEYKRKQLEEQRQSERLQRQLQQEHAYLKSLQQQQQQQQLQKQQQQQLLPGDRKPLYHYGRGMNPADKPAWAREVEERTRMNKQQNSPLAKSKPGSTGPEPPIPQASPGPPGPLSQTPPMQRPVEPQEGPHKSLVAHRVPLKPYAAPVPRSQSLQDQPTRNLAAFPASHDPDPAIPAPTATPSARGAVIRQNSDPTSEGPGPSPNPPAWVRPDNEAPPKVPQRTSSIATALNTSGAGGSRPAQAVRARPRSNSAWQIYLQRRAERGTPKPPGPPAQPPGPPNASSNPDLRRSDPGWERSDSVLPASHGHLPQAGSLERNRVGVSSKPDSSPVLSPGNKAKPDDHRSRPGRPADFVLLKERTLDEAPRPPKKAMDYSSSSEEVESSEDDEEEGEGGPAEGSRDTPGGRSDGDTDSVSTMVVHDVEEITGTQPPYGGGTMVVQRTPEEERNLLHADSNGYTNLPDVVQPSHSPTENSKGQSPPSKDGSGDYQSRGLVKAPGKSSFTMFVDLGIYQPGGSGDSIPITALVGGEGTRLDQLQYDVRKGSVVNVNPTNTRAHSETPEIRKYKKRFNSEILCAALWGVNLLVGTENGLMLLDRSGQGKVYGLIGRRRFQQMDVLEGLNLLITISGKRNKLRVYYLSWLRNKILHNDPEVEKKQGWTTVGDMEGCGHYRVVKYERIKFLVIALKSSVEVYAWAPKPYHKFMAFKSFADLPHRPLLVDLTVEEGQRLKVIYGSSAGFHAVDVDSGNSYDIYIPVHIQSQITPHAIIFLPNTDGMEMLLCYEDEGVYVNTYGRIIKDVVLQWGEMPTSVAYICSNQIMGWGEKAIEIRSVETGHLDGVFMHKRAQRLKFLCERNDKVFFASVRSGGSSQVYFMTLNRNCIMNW
T13 sequence (Q9BTU6 whole entry): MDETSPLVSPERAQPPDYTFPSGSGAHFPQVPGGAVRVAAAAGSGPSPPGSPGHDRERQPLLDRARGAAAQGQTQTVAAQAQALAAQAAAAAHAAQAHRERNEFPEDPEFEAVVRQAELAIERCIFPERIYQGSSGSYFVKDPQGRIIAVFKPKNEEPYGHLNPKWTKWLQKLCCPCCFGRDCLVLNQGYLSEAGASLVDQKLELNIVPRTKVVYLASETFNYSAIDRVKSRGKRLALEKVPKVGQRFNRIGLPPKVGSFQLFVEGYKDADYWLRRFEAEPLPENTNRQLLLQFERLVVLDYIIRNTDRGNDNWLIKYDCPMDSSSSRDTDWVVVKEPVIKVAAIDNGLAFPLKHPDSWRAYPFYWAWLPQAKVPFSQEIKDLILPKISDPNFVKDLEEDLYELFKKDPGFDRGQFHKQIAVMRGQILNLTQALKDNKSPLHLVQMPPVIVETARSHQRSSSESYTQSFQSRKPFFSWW

COc1ccc2c(c1OC)c(=O)n1c3ccc(O)cc3c3ccnc2c31 [MW01, 5-Hydroxy-10,11-dimethoxy-9H-benzo[c]indolo[3,2,1-ij][1,5]naphthyridin-9-one]
inhibition at 1 µM ([1]; 1000nM): 1%
inhibition at 10 µM ([1]; 10000nM): 9%
inhibition at 1 µM ([2]; 1000nM): 18%
inhibition at 10 µM ([2]; 10000nM): 40%
inhibition at 1 µM ([3]; 1000nM): 8%
inhibition at 10 µM ([3]; 10000nM): 26%
inhibition at 1 µM ([4]; 1000nM): 11%
inhibition at 10 µM ([4]; 10000nM): 23%
inhibition at 1 µM ([5]; 1000nM): 36%
inhibition at 10 µM ([5]; 10000nM): 51%
inhibition at 1 µM ([6]; 1000nM): 80%
inhibition at 10 µM ([6]; 10000nM): 90%
inhibition at 1 µM ([7]; 1000nM): 62%
inhibition at 10 µM ([7]; 10000nM): 82%
inhibition at 1 µM ([8]; 1000nM): 17%
inhibition at 10 µM ([8]; 10000nM): 0%
inhibition at 1 µM ([9]; 1000nM): 77%
inhibition at 10 µM ([9]; 10000nM): 83%
inhibition at 1 µM ([10]; 1000nM): 57%
inhibition at 10 µM ([10]; 10000nM): 67%
inhibition at 1 µM ([11]; 1000nM): 83%
inhibition at 10 µM ([11]; 10000nM): 87%
inhibition at 1 µM ([12]; 1000nM): 60%
inhibition at 10 µM ([12]; 10000nM): 73%
inhibition at 1 µM ([13]; 1000nM): 7%
inhibition at 10 µM ([13]; 10000nM): 25%
inhibition at 1 µM ([14]; 1000nM): 94%
inhibition at 10 µM ([14]; 10000nM): 100%
inhibition at 1 µM ([15]; 1000nM): 26%
inhibition at 10 µM ([15]; 10000nM): 43%
inhibition at 1 µM ([16]; 1000nM): 81%
inhibition at 10 µM ([16]; 10000nM): 86%
inhibition at 1 µM ([17]; 1000nM): 92%
inhibition at 10 µM ([17]; 10000nM): 96%
inhibition at 1 µM ([18]; 1000nM): 25%
inhibition at 10 µM ([18]; 10000nM): 43%
inhibition at 1 µM ([19]; 1000nM): 4%
inhibition at 10 µM ([19]; 10000nM): 21%
inhibition at 1 µM ([20]; 1000nM): 54%
inhibition at 10 µM ([20]; 10000nM): 69%
